From the supplement of paper PMC12592484

Experiments:
Experiment in all cases: drug sensitivity score (DSS2, normalised partial AUC of dose-response, 72 h CellTiter-Glo viability) (DSS (dimensionless)); higher = more sensitive (stronger growth inhibition / cytotoxicity); extreme values may be limits of the assay
CAF#2 = test system: CAF#2 (primary prostate cancer-associated fibroblasts of iCAF-like type)
How it was run: (§1)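 Viability of low-passage primary prostate cancer-associated fibroblasts, PF179T, WPMY-1, LNCaP and 22Rv1 cells was read by CellTiter-Glo 2.0 luminescence 72 h after seeding onto compounds pre-dispensed in 384-well plates at five doses over a 10,000-fold range. Readings were scaled between vehicle and positive-control wells. Sensitivity is reported as a drug sensitivity score from BREEZE, namely a partial area under the fitted logistic curve divided by the log of its upper asymptote, where higher means more sensitive.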

CAF#7 = test system: CAF#7 (primary prostate cancer-associated fibroblasts of myCAF-like type)
How it was run: as §1

WPMY-1 = test system: WPMY-1
How it was run: as §1

CAF#4 = test system: CAF#4 (primary prostate cancer-associated fibroblasts of iCAF-like type)
How it was run: as §1

LNCAP = test system: LNCAP
How it was run: as §1

CAF#6 = test system: CAF#6 (primary prostate cancer-associated fibroblasts of iCAF-like type)
How it was run: as §1

22Rv1 = test system: 22Rv1
How it was run: as §1

CAF#3 = test system: CAF#3 (primary prostate cancer-associated fibroblasts of myCAF-like type)
How it was run: as §1

CAF#5 = test system: CAF#5 (primary prostate cancer-associated fibroblasts of myCAF-like type)
How it was run: as §1

CAF#1 = test system: CAF#1 (primary prostate cancer-associated fibroblasts of myCAF-like type)
How it was run: as §1

PF179T = test system: PF179T
How it was run: as §1

Compound | drug sensitivity score (CAF#2) | drug sensitivity score (CAF#7) | drug sensitivity score (WPMY-1) | drug sensitivity score (CAF#4) | drug sensitivity score (LNCAP) | drug sensitivity score (CAF#6) | drug sensitivity score (22Rv1) | drug sensitivity score (CAF#3) | drug sensitivity score (CAF#5) | drug sensitivity score (CAF#1) | drug sensitivity score (PF179T)
C[C@H](Nc1ncnc2nc[nH]c12)c1cc2cccc(Cl)c2c(=O)n1-c1ccccc1 [Duvelisib] (tested concentration range 0-500 nM) | 1 | 1.9 | 0.5 | 1.7 | 11 | 1.3 | 0 | 3.4 | 2.3 | 1.1 | 1.7
CCC(C)n1ncn(-c2ccc(N3CCN(c4ccc(OCC5COC(Cn6cncn6)(c6ccc(Cl)cc6Cl)O5)cc4)CC3)cc2)c1=O (stereo not given) [Itraconazole] (tested concentration range 0.5-5000 nM) | 1.2 | 1.2 | 4.2 | 0.2 | 5.3 | 1.6 | 2.7 | 2.7 | 0 | 0 | 1
CO[C@@]12[C@H](COC(N)=O)C3=C(C(=O)C(C)=C(N)C3=O)N1C[C@@H]1N[C@@H]12 [Mitomycin C] (tested concentration range 1-10000 nM) | 0.1 | 0 | 0 | 0 | 0.7 | 0 | 0 | 0 | 0 | 0 | 0
Cc1nc2cccc(N)c2c(=O)n1C1CCC(=O)NC1=O (stereo not given) [Avadomide] (tested concentration range 1-10000 nM) | 0 | 0 | 0 | 2.2 | 0 | 0 | 0 | 0.4 | 0 | 0 | 0.1
Oc1ccc2c(c1)CC[C@H](c1ccccc1)[C@@H]2c1ccc(OCCN2CCCC2)cc1 [Lasofoxifene] (tested concentration range 0.1-1000 nM) | 0 | 0 | 0 | 0 | 0 | 0 | 0 | 0 | 1.3 | 0 | 0
Cc1cc(Nc2ncnc3ccc(NC4=NC(C)(C)CO4)cc23)ccc1Oc1ccn2ncnc2c1 [Tucatinib] (tested concentration range 0.2-2500 nM) | 0 | 0 | 0 | 0 | 0.6 | 0.1 | 0 | 0 | 0 | 0.4 | 0.1
COCCNCc1ccc(-c2cc3nccc(Oc4ccc(NC(=S)NC(=O)Cc5ccc(F)cc5)cc4F)c3s2)nc1 [Glesatinib] (tested concentration range 0.2-2500 nM) | 5.1 | 4.2 | 2.5 | 5.7 | 1.3 | 3.4 | 1.4 | 4.4 | 4.3 | 5.6 | 3.4
CNc1ncc2cc(-c3cc(NC(=O)NCCC(C)(C)C)c(F)cc3C)c(C)nc2n1 (tested concentration range 1-10000 nM) | 11 | 8 | 5.6 | 9.2 | 10.4 | 6.3 | 8.5 | 1.6 | 7.2 | 7.4 | 6.7
C[C@H]1C[C@@H]2[C@H]([C@@H](O)C[C@@]3(C)[C@H]2CC[C@]3(O)C(=O)CO)[C@@]2(C)C=CC(=O)C=C12 [Methylprednisolone] (tested concentration range 1-10000 nM) | 0 | 1.2 | 0 | 0 | 0 | 0 | 0 | 1.9 | 0 | 0 | 0
Cc1c(F)cc(C(=O)NC2CC2)cc1-c1ccc(C(=O)NCC(C)(C)C)cn1 [Losmapimod] (tested concentration range 1-10000 nM) | 0 | 0 | 0 | 0 | 3.7 | 0 | 0 | 0 | 0 | 0 | 0
Cc1[nH]c2ccccc2c1CCNCc1ccc(/C=C/C(=O)NO)cc1 [Panobinostat] (tested concentration range 0.1-1000 nM) | 11.4 | 7.9 | 22.9 | 8 | 23.1 | 9.3 | 23.2 | 7.7 | 10.4 | 11.3 | 10.9
COC(=O)c1ccc2c(c1)NC(=O)/C2=C(\Nc1ccc(N(C)C(=O)CN2CCN(C)CC2)cc1)c1ccccc1 [Nintedanib] (tested concentration range 1-10000 nM) | 8.6 | 10.5 | 5.7 | 7 | 9.2 | 7.7 | 8.4 | 9.3 | 5.5 | 5.4 | 0
Cc1cc(-c2nc(-c3ccc(OC(F)(F)F)cc3)no2)nn1Cc1ccnc(N2CCN(C3CC3)CC2)c1 [BAY 87-2243] (tested concentration range 0.1-1000 nM) | 1.6 | 0 | 23.2 | 0 | 24.8 | 0 | 19.8 | 0.5 | 0 | 0 | 26.4
O=c1[nH]cc(F)c(=O)[nH]1 [Fluorouracil] (tested concentration range 1-10000 nM) | 3.6 | 2.1 | 0.2 | 2 | 4.6 | 1.6 | 2.4 | 0.5 | 2.9 | 2.6 | 3.4
Cc1ccc(-n2nc(C(C)(C)C)cc2NC(=O)Nc2ccc(OCCN3CCOCC3)c3ccccc23)cc1 [Doramapimod] (tested concentration range 1-10000 nM) | 2.7 | 1.4 | 0 | 0 | 5.4 | 0.9 | 2.5 | 1.2 | 0.6 | 1.9 | 2.1
NS(=O)(=O)OC[C@@H]1C[C@@H](n2ccc3c(N[C@H]4CCc5ccccc54)ncnc32)C[C@@H]1O [Pevonedistat] (tested concentration range 1-10000 nM) | 13 | 5 | 12.6 | 7 | 29.6 | 5.7 | 18.9 | 0 | 9 | 4.4 | 6.4
O=c1[nH]c(=O)n([C@H]2C[C@H](O)[C@@H](CO)O2)cc1F [Floxuridine] (tested concentration range 1-10000 nM) | 4.3 | 3 | 24 | 2 | 15.2 | 2.3 | 6 | 1.1 | 1.4 | 1.8 | 5.1
Cc1ccc(NC(=O)c2ccc(CN3CCN(C)CC3)cc2)cc1Nc1nccc(-c2cccnc2)n1 [Imatinib] (tested concentration range 1-10000 nM) | 2.6 | 0.7 | 0.6 | 2 | 2.2 | 1.7 | 1.6 | 1.7 | 0.6 | 0.3 | 0
O=C(CCCCCCC(=O)Nc1ccc([C@H]2O[C@@H](CSc3nc(-c4ccccc4)c(-c4ccccc4)o3)C[C@@H](c3ccc(CO)cc3)O2)cc1)NO [Tubacin] (tested concentration range 1-10000 nM) | 2.4 | 3.3 | 5.3 | 1.4 | 7 | 1.1 | 5.6 | 0 | 2.3 | 2 | 3.4
COc1cc(Nc2c(C#N)cnc3cc(OCCCN4CCN(C)CC4)c(OC)cc23)c(Cl)cc1Cl [Bosutinib] (tested concentration range 1-10000 nM) | 8.5 | 4.1 | 9.2 | 5.8 | 10.1 | 5.1 | 7.7 | 6.6 | 6.2 | 7.4 | 4.8
Cc1cn(-c2cc(NC(=O)c3ccc(C)c(Nc4nccc(-c5cccnc5)n4)c3)cc(C(F)(F)F)c2)cn1 [Nilotinib] (tested concentration range 1-10000 nM) | 0.8 | 0 | 0 | 1.7 | 5.3 | 0 | 2.1 | 0 | 0.2 | 0.8 | 0
NC(=O)c1cccc2cn(-c3ccc([C@@H]4CCCNC4)cc3)nc12 [Niraparib] (tested concentration range 1-10000 nM) | 3.9 | 3.7 | 4.4 | 2.5 | 5.5 | 1.1 | 7.5 | 3.2 | 1.7 | 1.5 | 5.8
COc1cc([C@@H]2c3cc4c(cc3[C@@H](O[C@@H]3O[C@@H]5CO[C@@H](C)O[C@H]5[C@H](O)[C@H]3O)[C@H]3COC(=O)[C@H]23)OCO4)cc(OC)c1O [Etoposide] (tested concentration range 1-10000 nM) | 5.9 | 5.1 | 9 | 0.9 | 9.9 | 2.8 | 10.1 | 2.6 | 3 | 2.3 | 5.8
CNc1nc(-c2ccc3c(N)n[nH]c3c2)cc(N2C[C@@H](C(=O)NC3CCCCC3)CC[C@H]2C)n1 (tested concentration range 1-10000 nM) | 1.1 | 3.8 | 1.4 | 2.4 | 7.5 | 4 | 6.4 | 6.6 | 5.8 | 4 | 0
Cc1cnc(Nc2ccc(OCCN3CCCC3)cc2)nc1Nc1cccc(S(=O)(=O)NC(C)(C)C)c1 [Fedratinib] (tested concentration range 1-10000 nM) | 5 | 9.6 | 7.2 | 4.6 | 8 | 8 | 9.5 | 9.7 | 5.2 | 3.9 | 7.7
